Experimental data as given in PMC8886331, “Lewis fucose is a key moiety for the recognition of histo‐blood group antigens by GI.9 norovirus, as revealed by structural analysis” (FEBS Open Bio, 2022).

What was measured:
[1] = target: T1, GI.9 Vancouver P domain (P dimer) of VP1 (Norovirus Hu/GI/Vancouver730/2004/CAN, UniProt F2XMU3); assay: X-ray crystal structure (soak), […] A; assay type: binding; settings: crystal in 0.1 M bicine pH 9.0, 1.5-1.7 M MgCl2; soaked with 100 mM ligand overnight at 25 °C; HBGA site at P dimer interface
T1 construct: P (protruding) domain, residues 229-540 of VP1; N11-SUMO fusion from E. coli cell-free system or E. coli KRX, tag cleaved with SUMO protease; homodimer, site formed by both protomers (P-loop from the other protomer)

[2] = target: T1, GI.9 Vancouver P domain (P dimer) of VP1; assay: X-ray crystal structure (soak), […] A; assay type: binding; settings: crystal in 0.1 M bicine pH 9.0, 1.5-1.7 M MgCl2; soaked with 100 mM ligand overnight at 25 °C; HBGA site at P dimer interface; remark: listed apart in the source
[3] = target: P domain of the VP1 capsid protein of the GI.9 norovirus Vancouver 730 strain (norovirus GI.9, Vancouver 730 strain); assay: SEC; size-exclusion chromatogram of the synthesized P domain proteins; data not shown

Compound: CC(=O)N[C@H]1C(O)O[C@H](CO)[C@@H](O[C@@H]2O[C@@H](C)[C@@H](O)[C@@H](O)[C@@H]2O)[C@@H]1O[C@@H]1O[C@H](CO)[C@H](O)[C@H](O)[C@H]1O[C@@H]1O[C@@H](C)[C@@H](O)[C@@H](O)[C@@H]1O (stereo partly drawn) [Lewis b tetrasaccharide]
- X-ray crystal structure (soak), 2.40 A [1]: crystal structures of the P domains complexed with each of Lewis b tetrasaccharide and Lewis x

Compound: CC(=O)N[C@H]1C(O)O[C@H](CO)[C@@H](O[C@@H]2O[C@H](CO)[C@H](O)[C@H](O)[C@H]2O)[C@@H]1O[C@@H]1O[C@@H](C)[C@@H](O)[C@@H](O)[C@@H]1O (stereo partly drawn) [Lewis x trisaccharide]
- X-ray crystal structure (soak), 2.26 A [2]: P domains complexed with each of Lewis b tetrasaccharide and Lewis x trisaccharide

Compound: P domain of the VP1 capsid protein of the GI.9 norovirus Vancouver 730 strain (domain or fragment)
- stoichiometry N [3]: 2
